Assay results reported in US6537978B1, “Oral administration of effective amounts of forms of hyaluronic acid” (Jagotec AG, priority 1996, dated 2003).

Legend:
[1] = Rat serum hyaluronic acid levels and molecular weight after oral administration (gel filtration, carbazole and aggrecan ELISA-like assay); format: in vivo; conditions: for serum/blood HA amount after oral compared with subcutaneous administration: oral 30 mg/kg vs subcutaneous 30-100 mg/kg
Description: Elisa-Like Assay for Hyaluronic Acid in Column Fractions from Serum Obtained after the Oral Administration of Sodium Hyaluronate at 30 mg/kg (400.000)Daltons Mean Average Molecular Weight Distribution (Protein Standard), 2% by Weight in Sterile Water)
using 2 mL fraction volumes.
B.) Elisa-Like Assay for Hyaluronic Acid
Prior to assay the column fractions were prepared in the following manner:
1900 μ.L of each 2 mL fraction was frozen at—80° C. and then taken to dryness on a speed vac concentrator at room temperature.
fractions were reconstituted with 125 μ.L of ddH2O and then assayed.
The sharp drop in serum hyaluronic acid levels seen at 3 and 6 hours post-feeding appears to be a real event since it was reproduced in serum analyzed from two different animals for each time point. The overall trend appears to be satisfactory. It is indicative of an initial absorption of sodium hyaluronate in the stomach (1 hour post-feeding of HA) followed by a rapid clearance of this initial “pulse” from the blood. The second “pulse” of increased serum hyaluronic acid (9-12 hours post-feeding of HA) appears then to represent a second phase of absorption, as the administered sodium hyualuronate moves into the small and large intestine. The majority of serum hyaluronic acid at 1 hour and 9 hours post-feeding of HA (FIG. 3 (A), (D)) elutes in the region of V, indicating a molecular weight >71 kDa(Kilodaltons (high molecular weight species). Between 12-24 hours post-feeding (FIG. 3 (E), (G)), there appears to be an emergence of smaller molecular weight hyaluronic acid species in the molecular weight range between about 30 and about >80 kDa, and more particularly between 71-37.7 kDa (Kilo-daltons (peaks 1,2 and 3 in FIG. 1(G), representing 55.5, 47 and 38 kDa, respectively (Protein Standard). Two assays were used to measure HA in serum: (i) carbazole, and (ii) aggrecan assay.
F: Carbazole Assay for the Determination of Glucuronic Acid
For this assay, a linear response has been achieved with hyaluronic acid standards up to 200 μg./mL, (the range of linearity is expected to be extendible to even higher standard concentrations).
Place 3 mL of 0.025 M sodium tetraborate solution in glass tubes and cool thoroughly on ice prior to addition of samples and standards.
Carefully layer (so as to avoid mixing) 0.5 mL of sample or standard over the sodium tetraborate solution in the reaction tubes and place tubes back on ice until all tubes have been prepared.
Mix the contents of each tube thoroughly with a vortex mixer and return the tube to the ice, while mixing the others, to prevent excessive heating of sample.
Place reaction tubes in a 90° C. water bath for 10 minutes and then transfer to a tub of cool water for 5-10 minutes.
Add 100 μ.L of 0.125% carbazole solution to each tube and mix thoroughly with a vortex mixer.
Re-heat the reaction tubes in the 90° C. water bath for an additional 15 minutes. Transfer to a tub of cool water for 5-10 minutes.
Measure absorbance of samples and standards at 530 nm.
After completion of the reaction,transfter 200 μ.L of each sample and standard to individual wells of a 96 well microtest plate. Immediately measure the sample absorbance at 530 ηm (550 ηm, given the available filters with some instruments) using a microplate reader. Biotinylated Aggregcan, an HA binding protein, can be used to detect low levels of HA in serum by in ELISA assay that has been published and is known to persons skilled in the art. This assay is more sensitive than the carbazole assay and was used for conformation.

[2] = tested on: neutrophils; assay: MPO (myleoperoxidase) content, neutrophil accumulation at the site of restenosis, oral HA; format: in vivo, rat; conditions: FIG. 8
Description: With respect to neutrophil accumulation, reference is to be had to FIG. 8—MPO Content (oral) where MPO is Myleoperoxidase and MPO has been assayed by the methods known to persons skilled in the art. This assay for detecting myleoperoxidase (which is an enzyme) is a good test and thus a good measure for detecting neutrophils.

[3] = Human serum hyaluronan levels and molecular weight after oral administration; format: in vivo; conditions: oral 30.0 mg/kg, m.w. less than 750,000 daltons (Protein Standard), FIG. 10
Description: FIGS. 11A, 11B and 11C illustrate the release of amounts of hyaluronic acid into the blood stream of individuals (human) who have taken hyaluronan orally and the molecular weights of the serum hyaluronan released by the bodily processes. The molecular weights of the hyaluronan released into the human blood serum appear to include amounts at peaks between 400,000 daltons and 600,000 daltons such as less than 500,000 daltons, between about 200,000 and about 300,000 such as greater than 200,000 daltons, and between about 30,000 daltons and about 80,000 daltons (determined using the Dextran Standard).
FIG. 10 illustrates the mean serum hyaluronan concentration after giving individual humans oral dosages containing 30.0 mg/kg of hyaluronan (molecular weight less than 750,000 daltons determined by the Protein Standard).

[4] = tested on: rat carotid artery; assay: Stenosis after balloon angioplasty injury of the rat carotid artery, oral HA; format: in vivo; conditions: for N/I RATIO ± S.E.M. (NEOINTIMA /INTIMA RATIO WHERE N IS NEOINTIMA AND I IS INTIMA): rat carotid artery after balloon injury, mean of four animals
Description: FIG. 6 consists of a series of photographs of the cross-sections through carotid arteries of rats showing the effects of different amounts of orally administered Hyaluronan in stenosis of the rat carotid arteries:
All vessels were injured with a fogherty balloon as described in the prior art (Forns et. al., 1994) Cross-sections of arteries of rats treated with HA, saline or left untreated are as shown:
These values represent the mean of, and standard error of the mean (S.E.M.) of, four animals. These experiments were repeated twice with similar results.
FIG. 7 illustrates the effects of oral administration of HA on Neointimal formation in rats after balloon angioplasty. Six groups of tests were conducted, each test in respect of 3 rats. Thus, the six test results shown in […] resulted from the use of 18 rats. […] This is consistent with the findings illustrated in FIGS. 6 and 8 and the discussion herein.

[5] = oral 30 mg/kg, 12-24 hours post-feeding, Protein Standard

Q: Which “serum/blood HA amount after oral compared with subcutaneous administration” value [1] does the source give for sodium hyaluronate [HA] here?
A: similar

Q: And the “serum/blood HA amount after oral compared with subcutaneous administration” value ([1]; listed as sodium hyaluronate)?
A: on the order of that seen for the subcutaneous administration of this compound at 30-100 mg/kg

Q: And the “molecular weight of serum hyaluronic acid, peak 1” value [1, 5]?
A: 55.5 kDa

Q: And the “molecular weight of serum hyaluronic acid, peak 2” value [1, 5]?
A: 47 kDa

Q: And the “molecular weight of serum hyaluronic acid, peak 3” value [1, 5]?
A: 38 kDa

Q: What about the “molecular weight of the majority of serum hyaluronic acid” value ([1]; oral 30 mg/kg, 1 hour and 9 hours post-feeding, Protein Standard) of the same substance?
A: > 71 kDa

Q: What about the “time course of HA in blood after oral administration” value ([1]; oral 30 mg/kg, FIG. 3) of the same substance?
A: burst of HA in blood one hour after administration, a decrease for five hours followed by a steady increase over the next eighteen hours

Q: And the “time after administration at which serum hyaluronan levels increase” value ([1]; oral 30 mg/kg, FIG. 4)?
A: about 1.25 hours

Q: And the “first increase of serum hyaluronic acid after oral administration” value ([1]; single oral dose 30 mg/kg, 2% in sterile water)?
A: increased within the first hour

Q: What about the “serum hyaluronic acid after the first pulse” value ([1]; single oral dose 30 mg/kg, 3 and 6 hours post-feeding) of the same substance?
A: sharp decrease to background levels in normal serum at 3 and 6 hours post-feeding

Q: What about the “second increase of serum hyaluronic acid” value ([1]; single oral dose 30 mg/kg, from 9 hours post-feeding) of the same substance?
A: increase at 9 hours post-feeding of HA and this increase is sustained over the time period extending up to 24 hours

Q: And the “neutrophil number (MPO content) at the site of restenosis” value [2]?
A: reduces the number of neutrophils

Q: And the “time window of increased serum hyaluronan levels” value [3]?
A: 4 to 12 h

Q: And the “N/I RATIO ± S.E.M. (NEOINTIMA /INTIMA RATIO WHERE N IS NEOINTIMA AND I IS INTIMA)” value ([4]; 1 mg/kg orally)?
A: 2.6 ± 0.8

Q: What about the “N/I RATIO ± S.E.M. (NEOINTIMA /INTIMA RATIO WHERE N IS NEOINTIMA AND I IS INTIMA)” value ([4]; 3 mg/kg orally) of the same substance?
A: 1.7 ± 0.4

Q: And the “N/I RATIO ± S.E.M. (NEOINTIMA /INTIMA RATIO WHERE N IS NEOINTIMA AND I IS INTIMA)” value ([4]; 10 mg/kg orally)?
A: 0.4 ± 0.03

Q: What about the “N/I RATIO ± S.E.M. (NEOINTIMA /INTIMA RATIO WHERE N IS NEOINTIMA AND I IS INTIMA)” value ([4]; 30 mg/kg orally) of the same substance?
A: 0.99 ± 0.06

Q: And the “N/I RATIO ± S.E.M. (NEOINTIMA /INTIMA RATIO WHERE N IS NEOINTIMA AND I IS INTIMA)” value ([4]; 100 mg/kg orally)?
A: 1.1 ± 0.08

Q: And the “neointimal to total wall ratio, order of the dose groups” value ([4]; oral HA, rats after balloon angioplasty, 3 rats per group, FIG. 7)?
A: greater for administration of saline, followed by the administration of HA in amounts per kilogram of body weight of 1 mg, then 100 mg, 10 mg and 3 mg

Q: And the “oral dose with optimal effects on smooth muscle cell proliferation” value ([4]; oral administration, rat, FIG. 6)?
A: 3 to 10 mg/kg
